Data published in paper PMC10073488 (Frontiers in Pharmacology, 2023).

How the values were obtained:
[1] = human, in vivo
Method: There were two studies in the project. Study 1 was under the fasting state, and study 2 was under the fed state. […] The studies aimed to compare the PK profiles and safeties of the T and R drugs. The study protocols were approved by the Wuxi People’s Hospital Ethics Committee (Approval No. 2018LLPJ-I-14-03) and were conducted at Wuxi People’s Hospital Affiliated to Nanjing Medical University, Jiangsu Province, China. The studies were performed in accordance with the principles of the World Medical Association (WMA) Declaration of Helsinki. All volunteers signed written informed consents before enrollment.
Subjects received a single oral dose of the T or R drug in each period in a randomized way under either fasting or fed conditions, with a wash-out of 7 days. For the fed study, subjects finished the high-fat diet (containing protein 16.52%, fat 56.85%, carbohydrate 26.63%) in 30 min and were given the drug with 240 ml of a 20% glucose solution in water 30 min after they started eating the diet. For the fasting study, the drug was administered with 240 ml of a 20% glucose solution in water under the fasting state. An overnight fast for at least 10 h before administration was required. Subjects were not allowed to drink water 1 h before and after dosing, and lunch could be served only 4 h after dosing for both studies.
Venous blood samples (4 ml) were collected from an intravenous indwelling catheter before dosing and at 0.5, 1, 1.5, 2, 2.5, 3, 3.5, 4, 4.5, 5, 6, 7, 8, 9, 10, 11, 12, 14, 24, 32, 48, and 72 h after dosing for both fed and fasting studies. Blood samples were drawn into BD Vacutainers® with ethylene diamine tetra acetic acid (EDTA) anticoagulant. Plasma was separated by centrifugation at 2150 ± 5 g for 10 min at 2°C–8°C and stored at −20°C within 2 h after sampling and transferred to −80°C within 24 h.
Study data were summarized by descriptive statistics. The statistical analyses were performed using SAS® version 9.4. For the comparisons, Cmax, AUC0–t, and AUC0–∞ were analyzed using linear mixed models after logarithmic transformation. […] was achieved if the 90% CI of each parameter geometric means ratio (GMR) test/reference fell between 0.8–1.25. The statistical analysis included treatment, period, sequence, and subject-within-sequence as fixed effects. Tmax was compared between treatments using the non-parametric Wilcoxon signed-rank test.

[2] = Published BE studies of sitagliptin (100 mg) and sitagliptin–metformin (50/1000 mg) IR fixed-dose combination; format: in vivo; details: sitagliptin (100 mg) alone; fasting condition; published values (ref Schnaars et al., 2023) compared with own data
[3] = sitagliptin, ref FDA, 2005, 2006, 2012; cited from earlier work
[4] = design: method as in Schnaars et al., 2023; details: metformin 1000 mg, IR; fed condition; ref Schnaars et al., 2023; cited from earlier work

Row | Cmax, AUC0−t, AUC0−∞ higher than the data of this study [2] | SMILES | Intra-individual variation of AUC0-t [1] [%] | Intra-individual variation of AUC0-∞ [1] [%] | Intra-individual variation of Cmax [1] [%] | t1/2 [3] | Cmax [4] [ng/mL] | median Tmax [4] [h]
1 | 14–32% | N[C@@H](CC(=O)N1CCn2c(nnc2C(F)(F)F)C1)Cc1cc(F)c(F)cc1F [Sitagliptin, sitagliptin] | 6.05 | 6.04 | 19.42 | around 12 h |  | 
2 |  | CN(C)C(=N)N=C(N)N [Metformin, metformin] | 13.01 | 13.31 | 11.61 |  | 1.59289 | 3.5
